The results in this text go back to PMC12990037, “Discovery of Two Structurally Distinct Classes of Inhibitors Targeting the Nuclease MUS81 and Enhancing Efficacy of Chemotherapy in Cancer Cells” (Journal of Medicinal Chemistry, 2026).

What all share (type): cell-based
The test system of one test is U2OS DR-GFP cells. The experiment in a line: I-SceI-based HR repair reporter assay. To be noted: Homo sapiens, 72 h. How it is done:
3 MUS81 inhibitors suppress HR and BIR. (A) I-SceI-based BIR repair efficiency was measured in U2OS BIR-GFP cells treated with DMSO, two different siRNAs targeting MUS81, or the indicated concentrations of MU262 and MU876, and their control analogues for 72 h. The percentage of repair was normalized to the DMSO-treated control (D). n = 3. Error bars represent standard deviation (s.d.); ****p <0.0001 (unpaired, two-tailed t-test). […] (C,D) I-SceI-based HR (C) and NHEJ (D) repair efficiency was measured using U2OS DR-GFP and EJ5-GFP cells, respectively, following treatment with DMSO, MU262,MU876, or their control analogues for 72 h. The percentage of repair was normalized to the DMSO-treated control. n = 3. Error bars represent s.d.; *p <0.05, **p <0.01, ****p <0.0001 (unpaired, two-tailed t-test).
Reporter DR-GFP and […] U2OS cells along with BIR-GFP cells were transfected with 2.5 μg of I-SceI-expressing pCAGGS vector and subsequently treated with MUS81 inhibitors at the indicated concentrations. After transfection (72 h), cells were trypsinized and resuspended in 3% BSA in PBS. GFP fluorescence detection was carried out using a BD FACSVerse flow cytometer, and the data were analyzed with FlowJo software (BD Life Sciences). Data presented in the graph were normalized to the DMSO-treated sample.
(In general: A reporter such as luciferase makes a cellular process visible.)

The next test has as its system ALT-positive U2OS cells. The experiment in a line: Detection of TFEs by FISH on metaphase spreads. To be noted: 48 h. The method, then:
(§1) 5 Small-molecule inhibitors of MUS81 mimic the effect of siRNA-mediated MUS81 depletion in cells. (A) U2OS cells were treated with DMSO, MUS81-targeting siRNA, MU262, MU876, or their respective control analogues for 48 h. Cytochalasin B (1.25 μg/mL) was added 16 h before harvest to prevent cytokinesis. […] (B) Representative images corresponding to the selected conditions from (A). (C) U2OS and (D) HeLa cells were incubated with DMSO, the indicated inhibitors, and their respective control analogues for 48 h. Nocodazole (200 ng/mL) was added for 5 h prior to the end of treatment to arrest cells in mitosis. Mitotic cells were collected by shake-off, and telomere fragility events (TFEs) were quantified manually for each metaphase spread. At least 70 metaphase spreads were quantified per condition. n = 3; error bars represent s.d.; ***p < 0.001, ****p < 0.0001 (ordinary One-way ANOVA).
(§2) U2OS and HeLa cells were seeded in 10 cm dishes. The next day, the medium was changed, and compounds were added at desired concentrations. This process was repeated after 43 h except that compounds were added together with 200 ng/mL of nocodazole. Cells were collected 5 h later by shake-off and incubated in 75 mM KCl at 37 °C for 10 min. Chromosomes were fixed in ice-cold methanol/acetic acid (3:1) and spread on glass slides. Slides were then treated with 20 μg/mL RNase A (Sigma-Aldrich), in 1x PBS at 37 °C for 1 h, fixed in 4% formaldehyde (Sigma-Aldrich) in 1x PBS for 2 min, and treated with 70 μg/mL pepsin (Sigma-Aldrich) in 2 mM glycine, pH 2 (Sigma-Aldrich) at 37 °C for 5 min. Slides were fixed again with 4% formaldehyde in 1x PBS for 2 min, incubated subsequently in 70%, 90%, and 100% ethanol for 5 min each, and air-dried. A C-rich telomeric PNA probe (5′-AF568-OO-p4[…]-3′; Panagene) diluted in hybridization solution (10 mM Tris–HCl pH 7.2, 70% formamide, 0.5% blocking solution (Roche)) was applied onto the slides followed by incubation at 80 °C for 5 min and at room temperature for 2 h. Slides were washed twice in 10 mM Tris–HCl pH 7.2, 70% formamide, and 0.1% BSA and three times in 100 mM Tris–HCl pH 7.2, 150 mM NaCl, and 0.08% Tween-20 at room temperature for 10 min each. DNA was counterstained with 100 ng/mL DAPI (Sigma-Aldrich) in 1x PBS and slides were mounted in Vectashield (Vector Labs). Images were acquired with a Zeiss Cell Observer equipped with a cooled Axiocam 506 m camera and a 63X/1.4NA oil DIC M27 PlanApo N objective. Image analysis was performed using ImageJ and Photoshop software (Adobe Inc.).

The test system of another test is HeLa cells. The experiment in a line: Detection of TFEs by FISH on metaphase spreads. As to conditions: 48 h. How it is done:
as §1, §2

The next test deals with CAL51 MUS81^–/– cells. The experiment in a line: Cell proliferation assay (CyQUANT), combination with cisplatin. The method, then:
CAL51 WT, CAL51 MUS81^–/–, U2OS, and HEK293 cells were seeded in a 96-well plate and treated with the respective concentration of selected inhibitors. After incubation for 4–5 days, cells were harvested while the untreated control was still subconfluent. The plate was then incubated at −80 °C to achieve cell lysis. Cell proliferation was assessed using the CyQUANT Cell Proliferation Assay kit (Thermo Fisher Scientific) according to manufacturer’s instructions. […] was measured using a plate reader (Infinite F500, Tecan Austria GmbH).

The structures appear in SMILES notation.

For orientation: IC50 means the concentration needed to halve the response being measured. Low values mean greater potency, high ones weaker potency. Compound `CCc1nn2c(O)c(-c3nc4ccccc4[nH]3)nnc2c1-c1ccc(F)cc1` [Compound 18, 3-(1H-Benzo[d]imidazole-2-yl)-7-ethyl-8-(4-fluorophenyl)pyrazolo[5,1-c][1,2,4]triazin-4-ol] returned an IC50 in the test with U2OS DR-GFP cells of 500 to 1000 nM. Also, the “telomere-free ends (TFEs)” value was “significantly increased the presence of telomere-free ends (TFEs)” in the test on ALT-positive U2OS cells; “but not in telomerase-positive and ALT-negative HeLa cells” in the test with HeLa cells. In the test with CAL51 MUS81^–/– cells, the sensitization to cisplatin result is “no additional sensitization”.
The compound `Cc1cc(=O)[nH]c(-n2nc(-c3ccccc3)cc2NC(=O)c2cc(-c3ccccc3)on2)n1` [Compound 32, N-(1-(4-Methyl-6-oxo-1,6-dihydropyrimidin-2-yl)-3-phenyl-1H-pyrazol-5-yl)-5-phenylisoxazole-3-carboxamide] came in with an IC50 with U2OS DR-GFP cells of 500 to 1000 nM. Besides, the “telomere-free ends (TFEs)” value in the test on ALT-positive U2OS cells is “significantly increased the presence of telomere-free ends (TFEs)”; in the test with HeLa cells it was “but not in telomerase-positive and ALT-negative HeLa cells”. Also, the sensitization to cisplatin entry in the test with CAL51 MUS81^–/– cells was “no additional sensitization”.
